Key:
[1] = test system: tumors formed by CARM1 knockout cells; assay: Immunohistochemistry and qRT-PCR of dissected CARM1 knockout tumors; format: in vivo, mice
Method: FIGS. 82 to 84 illustrate immunohistochemical analysis for serial sections of tumors dissected from mice injected with CARM1 knockout A1847 cells. Serial sections of tumors dissected from the indicated treatment groups described in FIGS. 73 to 75 were subjected to immunohistochemical staining for H3K27Me3, EZH2, cleaved caspase 3, and Ki67 (FIG. 82). Scale bar=50 μm. Histological score (H-score) of the indicated proteins was calculated for 3 separate fields from 5 tumors from 5 individual mice from each of the indicated groups (FIG. 83). Expression of the indicated EZH2/BAF155 target genes was determined by qRT-PCR in the tumors dissected from the indicated treatment groups (FIG. 84).
The observed tumor growth suppression in vivo was correlated with the molecular pathways underlying the CARM1-dependent effects of EZH2 inhibition. To do so, immunohistochemical (IHC) analysis was performed for markers of cell proliferation (Ki67), apoptosis (cleaved caspase 3), H3K27Me3 and EZH2. […] Finally, the observed decrease in cell proliferation and increase in apoptosis correlated with the upregulation of the identified CARM1-regulated EZH2/BAF155 target genes such as DAB2, DLC1 and NOXA by the EZH2 inhibitor GSK126 in vivo (FIG. 81).

[2] = test system: CARM1-low EOC cells such as CAOV3 and PEO1; assay: Colony formation assay in CARM1-low EOC cells; format: cell-based, human; conditions: 10 μM GSK126
Method: FIG. 33 illustrates relative growth of the indicated HOSE, FTE, and EOC cancer cell lines with high or low CARM1 expression treated with 10 μM GSK126 or vehicle in a colony formation assay as determined by NIH Image J quantification.
500 to 5,000 cell were plated into a 24 well tissue culture plate and treated with the indicated compounds. Medium was changed every three days with appropriate drug doses for 12 days or until control wells became confluent. Colonies were washed twice with PBS and fixed with 10% methanol and 10% acetic acid in distilled water. Fixed colonies were stained with 0.005% crystal violet. Integrated density was measured using NIH ImageJ software.

[3] = test system: orthotopically-transplanted CARM1-expressing tumors; assay: Intrabursal orthotopic xenograft model, CARM1-expressing A1847 cells; format: in vivo, NSG mice
Method: The protocols were approved by the Institutional Animal Care and Use Committee (IACUC). For in vivo experiments, the sample size of 5 mice per group was determined based on the data shown from in vitro experiments. Intrabursal orthotopic xenograft was performed as described in Bitler, et al. Nature Medicine (2015) 21:231-8 and Bitler et al. Cancer Research (2011) 71:6184-94. Briefly, 1×10^6 A1847 parental or A1847 CARM1 knockout cells were unilaterally injected into the ovarian bursa of 6-8-week old female immunocompromised NSG mice (n=5 per group). One week after injection the mice were randomized into two groups and treated with vehicle control (20% captisol) or GSK126 (50 mg/kg daily) for three weeks. At the end of the experiments, tumors were surgically dissected and tumor burden was calculated based on tumor weight. For survival experiments, after stopping the treatment, the mice were followed for mortality or when the tumor burden reached 10% of body weight as determined by The Wistar Institute IACUC guideline.
EZH2 inhibitors, such as GSK126, are used safely in clinical trials for hematopoietic malignancies (Ribrag et al. Eur J Cancer (2014) 50:197). To determine the effects of EZH2 inhibition in vivo on the growth of CARM1-expressing ovarian tumors, two xenograft models were utilized. […]

NHEJ genes = assay: Expression of NHEJ genes; format: cell-based; conditions: CARM1 expressing cells

## CC[C@H](C)n1cc(C)c2c(C(=O)NCc3c(C)cc(C)[nH]c3=O)cc(-c3ccc(N4CCNCC4)nc3)cc21 [GSK126, (S)-1-(sec-butyl)-N-((4,6-dimethyl-2-oxo-1,2-dihydropyridin-3-yl)methyl)-3-methyl-6-(6-(piperazin-1-yl)pyridin-3-yl)-1H-indole-4-carboxamide]
[1]; IHC
  H3K27Me3: reduction of H3K27Me3
  expression of Ki67: did not affect the expression
  expression of cleaved caspase 3: did not affect the expression
[1]; qRT-PCR
  expression of CARM1 regulated EZH2/BAF155 target genes: did not increase the expression
[2]
  response of CARM1-low EOC cells: did not respond
[3]; 50 mg/kg daily i.p., three weeks
  growth of CARM1-expressing tumors: significantly inhibited
[3]; followed after stopping treatment, vs controls
  survival of tumor bearing mice: significantly improved the survival
NHEJ genes
  expression of NHEJ genes: restores the expression of NHEJ genes

From patent publication US12036222B2, “Methods of treating cancers overexpressing CARM1 with EZH2 inhibitors and a PARP inhibitor” (The Wistar Institut of Anatomy and Biology, priority 2018, dated 2024)
